Measured values reported in patent publication US20200361871A1 (Enterprise Therapeutics Ltd., priority 2018, published 2020).

Biological target: human TMEM16A (TMEM16Aabc variant) (Homo sapiens, UniProt Q5XXA6, DEL476-501, form not given)
Assay: Automated whole-cell patch clamp (Qpatch) TMEM16A potentiator assay in FRT cells stably expressing human TMEM16A
Assay type: cell-based
Conditions: for % Potentiation @ 3.33 μM Avg: 3.33 μM solution of test compound, percentage increase of baseline TMEM16A current; for EC50: calculated EC50, Qpatch TMEM16A current at +70 mV
Text: FIG. 1 is an example trace from a whole-cell patch clamp (Qpatch) TMEM16A potentiator assay as used in Biological Example 95 and illustrates the methodology used in the assay. In FIG. 1: S is Saline; V is Vehicle; #1 is Test Compound concentration #1; #2 is Test Compound concentration 2; #3 is Test Compound concentration 3; #4 is Test Compound concentration 4; #5 is Test Compound concentration #5; and R is Reference. The arrow in column V represents the baseline current, IBL. The arrows in each of the columns #1, #2, #3, #4, #5 and R represent I#[1], I#[2], I#[3], I#[4], I#[5] and I[Ref], which are the peak currents during the incubation periods for test compounds concentrations #1 to #5 and the Reference.
Fisher rat thyroid (FRT) cells stably expressing human TMEM16A (TMEM16Aabc variant; Dr Luis Galietta, Insituto Giannina, Italy) were cultured in T-75 flasks in Hams F-12 media with Coon's modification (Sigma) supplemented with 10% (v/v) foetal bovine serum, penicillin-streptomycin (10,000 U/mL/10000 μg/mL), G-418 (750 μg/mL), L-glutamine (2 mM) and sodium bicarbonate solution (7.5% v/v). At ˜90% confluence cells were harvested for experiments by detachment with a 2:1 (v/v) mixture of Detachin (BMS Biotechnology) and 0.25% (w/v) trypsin-EDTA. Cells were diluted to a density of 3.5-4.5×10^6 cells/mL with media consisting of CHO-S-SFM II (Sigma), 25 mM HEPES (Sigma) and Soy bean trypsin inhibitor (Sigma).
FRT-TMEM16A cells were whole-cell patch clamped using an automated planar patch clamp system (Qpatch, Sophion). Briefly, once high resistance (GOhm) seals were established between the cells and the planar recording array the patch was ruptured using suction pulses to establish the whole-cell recording configuration of the patch clamp technique. The assay employed the following solutions (all reagents Sigma): Intracellular solution (mM): N-methyl-D-glucamine 130, CaCl2 18.2, MgCl2 1, HEPES 10, EGTA 10, BAPTA 20, Mg-ATP 2, pH 7.25, 325 mOsm with sucrose.
Extracellular solution (mM): N-methyl-D-glucamine 130, CaCl2 2, MgCl2 1, HEPES 10, pH 7.3, 320 mOsm with sucrose.
The intracellular solution buffers intracellular calcium at levels required to give ˜20% activation of the maximal TMEM16A mediated current (EC20 for calcium ions). Cells were voltage clamped at a holding potential of −70 mV and a combined voltage step (to +70 mV)/ramp (−90 my to +90 mV) was applied at 0.05 Hz. After a period of current stabilisation test compounds, solubilised in 100% (v/v) DMSO and subsequently diluted into extracellular solution, were applied to generate a cumulative concentration response curve. Each concentration of test compound was incubated for 5 minutes before addition of the next concentration. After the final concentration was tested a supramaximal concentration of either a known active positive modulator or the TMEM16A inhibitor, CaCCinhA01 (Del La Fuente et al, 2008) was added to define the upper and lower limits of the assay.
Compound activity was quantified by measuring the increase in current upon compound addition and expressing this as a percentage increase of baseline TMEM16A current level. Percentage increases in current were determined for each concentration and the data plotted as a function of concentration using either the Qpatch software or Graphpad Prism v6.05 providing the concentration which gave 50% of its maximal effect (EC50) and maximum efficacy (percentage of baseline increase).
In FIG. 1, IBL equals baseline current, I[#1] equals the peak current during test compound concentration 1 incubation period and so on.
Peak TMEM16A current at +70 mV was plotted as a function of time over the assay period. Baseline current (IBL) was measured after a period of stabilisation. The increase in current for each compound addition was determined by taking the peak current during the incubation period and subtracting the current from the previous recording period and then expressing this as a percentage of the baseline current. […]

Chain of human TMEM16A (TMEM16Aabc variant) (Q5XXA6 with tags, fused parts or gaps DEL476-501): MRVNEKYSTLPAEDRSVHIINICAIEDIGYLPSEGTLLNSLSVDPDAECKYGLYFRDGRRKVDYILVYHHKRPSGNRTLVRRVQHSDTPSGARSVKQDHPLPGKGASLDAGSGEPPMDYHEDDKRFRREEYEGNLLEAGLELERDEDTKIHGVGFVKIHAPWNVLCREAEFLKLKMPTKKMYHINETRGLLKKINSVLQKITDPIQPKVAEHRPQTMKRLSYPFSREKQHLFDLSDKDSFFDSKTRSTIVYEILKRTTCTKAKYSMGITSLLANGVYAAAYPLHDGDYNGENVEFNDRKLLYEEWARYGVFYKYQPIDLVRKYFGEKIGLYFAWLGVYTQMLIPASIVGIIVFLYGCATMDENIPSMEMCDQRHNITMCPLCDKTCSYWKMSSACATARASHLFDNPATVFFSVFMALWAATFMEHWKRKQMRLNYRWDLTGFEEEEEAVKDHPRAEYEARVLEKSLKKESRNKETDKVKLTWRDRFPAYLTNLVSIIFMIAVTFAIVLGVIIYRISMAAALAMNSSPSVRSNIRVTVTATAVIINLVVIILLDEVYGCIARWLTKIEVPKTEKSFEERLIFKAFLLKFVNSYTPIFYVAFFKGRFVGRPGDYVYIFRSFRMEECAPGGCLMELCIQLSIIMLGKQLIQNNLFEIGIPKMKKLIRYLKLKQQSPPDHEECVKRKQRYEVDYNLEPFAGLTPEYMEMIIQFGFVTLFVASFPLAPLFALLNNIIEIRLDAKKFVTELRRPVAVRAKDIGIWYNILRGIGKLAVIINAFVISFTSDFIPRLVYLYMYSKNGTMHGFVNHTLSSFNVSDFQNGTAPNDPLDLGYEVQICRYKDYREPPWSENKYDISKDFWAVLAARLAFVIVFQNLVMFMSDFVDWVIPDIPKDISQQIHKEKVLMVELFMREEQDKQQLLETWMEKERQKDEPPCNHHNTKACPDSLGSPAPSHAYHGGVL

| SMILES | % Potentiation @ 3.33 μM Avg [%] | EC50 [nM] |
| --- | --- | --- |
| CCC(C)(C)NC(=O)c1cc(NC(=O)Cc2ccc(F)cc2O)ccn1 [Example 3.1a, N-(1,1-Dimethylpropyl)-4-[[2-(4-fluoro-2-hydroxy-phenyl)acetyl]amino]pyridine-2-carboxamide] | 128 | 180 |
| CC(C)(C)NC(=O)c1cc(NC(=O)Cc2ccc(F)cc2O)ccn1 [Example 3.2a, N-tert-Butyl-4-[[2-(4-fluoro-2-hydroxy-phenyl)acetyl]amino]pyridine-2-carboxamide] | 116 | 160 |
| CC(C)(C)NC(=O)c1cc(NC(=O)Cc2c(O)cccc2Cl)ccn1 [Example 3.3a, N-tert-Butyl-4-[[2-(2-chloro-6-hydroxy-phenyl)acetyl]amino]pyridine-2-carboxamide] | 91 | 70 |
| CC(C)(C)NC(=O)c1cc(NC(=O)Cc2cc(Cl)c(Br)cc2O)ccn1 [Example 3.4a, 4-[[2-(4-Bromo-5-chloro-2-hydroxy-phenyl)acetyl]amino]-N-tert-butyl-pyridine-2-carboxamide] | 206 | 140 |
| CC(C)(C)c1ccc(O)c(CC(=O)Nc2ccnc(C(=O)NC3(C#N)CCC3)c2)c1 [Example 3.5a, 4-[[2-(5-tert-Butyl-2-hydroxy-phenyl)acetyl]amino]-N-(1-cyanocyclobutyl)pyridine-2-carboxamide] | 311 | 500 |
| CC(C)(C)NC(=O)c1cc(NC(=O)Cc2cc(C(F)(F)F)ccc2O)ccn1 [Example 3.5b, N-tert-Butyl-4-[[2-[2-hydroxy-5-(trifluoromethyl)phenyl]acetyl]amino]pyridine-2-carboxamide] | 150 | 200 |
| CC1(NC(=O)c2cc(NC(=O)Cc3cc(C(C)(C)C)ccc3O)ccn2)CCC1 [Example 3.6a, 4-[[2-(5-tert-Butyl-2-hydroxy-phenyl)acetyl]amino]-N-(1-methylcyclobutyl)pyridine-2-carboxamide] | 546 | 370 |
| CC(C)(C)NC(=O)c1cc(NC(=O)Cc2ccc(Cl)cc2O)ccn1 [Example 3.6b, N-tert-Butyl-4-[[2-(4-chloro-2-hydroxy-phenyl)acetyl]amino]pyridine-2-carboxamide] | 205 | 120 |
| CC(C)(C)NC(=O)c1cc(NC(=O)Cc2c(O)c(Br)cc(F)c2Br)ccn1 [Example 3.7a, N-tert-butyl-4-[2-(2,5-dibromo-3-fluoro-6-hydroxyphenyl)acetamido]pyridine-2-carboxamide] | 135 | 280 |
| CC(C)(C)NC(=O)c1cc(NC(=O)Cc2ccc(C(F)(F)F)cc2O)ccn1 [Example 3.7b, N-tert-Butyl-4-[[2-[2-hydroxy-4-(trifluoromethyl)phenyl]acetyl]amino]pyridine-2-carboxamide] | 160 | 180 |
| COc1ccc(O)c(CC(=O)Nc2ccnc(C(=O)NC(C)(C)C)c2)c1 [Example 3.8b, N-tert-Butyl-4-[[2-(2-hydroxy-5-methoxy-phenyl)acetyl]amino]pyridine-2-carboxamide] | 203 | 300 |
| CC(C)(C)NC(=O)c1cc(NC(=O)C2CCc3ccc(O)cc32)ccn1 (centres unmarked) [Example 3.9b, N-tert-Butyl-4-[(6-hydroxyindane-1-carbonyl)amino]pyridine-2-carboxamide] | 144 | 960 |
| CC(C)(C)NC(=O)c1cc(NC(=O)C2CCc3cccc(O)c32)ccn1 (centres unmarked) [Example 3.10b, N-tert-Butyl-4-[(7-hydroxyindane-1-carbonyl)amino]pyridine-2-carboxamide] | 159 | 460 |
| CC(C)(C)NC(=O)c1cc(NC(=O)Cc2c(O)c(Br)cc(Cl)c2Br)ccn1 [Example 3.11b, N-tert-Butyl-4-[[2-(2,5-dibromo-3-chloro-6-hydroxy-phenyl)acetyl]amino]pyridine-2-carboxamide] | 168 | 410 |
| CC(C)(C)NC(=O)c1cc(NC(=O)Cc2cccc(O)c2)ccn1 [Example 3.12b, N-tert-Butyl-4-[[2-(3-hydroxyphenyl)acetyl]amino]pyridine-2-carboxamide] | 143 | 340 |
| CC(C)(C)NC(=O)c1cc(NC(=O)Cc2cc(O)ccc2F)ccn1 [Example 3.13b, N-tert-butyl-4-[[2-(2-fluoro-5-hydroxy-phenyl)acetyl]amino]pyridine-2-carboxamide] | 179 | 250 |
| CC(C)(C)NC(=O)c1cc(NC(=O)Cc2ccc(Cl)c(O)c2)ccn1 [Example 3.14b, N-tert-Butyl-4-[[2-(4-chloro-3-hydroxy-phenyl)acetyl]amino]pyridine-2-carboxamide] | 251 | 40 |
| CC(C)(C)NC(=O)c1cc(NC(=O)Cc2cccc(O)c2Cl)ccn1 [Example 3.15b, N-tert-Butyl-4-[[2-(2-chloro-3-hydroxy-phenyl)acetyl]amino]pyridine-2-carboxamide] | 127 |  |
| CC(C)(C)NC(=O)c1cc(NC(=O)Cc2cc(O)ccc2Cl)ccn1 [Example 3.16b, N-tert-Butyl-4-[[2-(2-chloro-5-hydroxy-phenyl)acetyl]amino]pyridine-2-carboxamide] | 167 | 170 |
| CC(C)(C)NC(=O)c1cc(NC(=O)Cc2cc(O)cc(Cl)c2)ccn1 [Example 3.17b, N-tert-Butyl-4-[[2-(3-chloro-5-hydroxy-phenyl)acetyl]amino]pyridine-2-carboxamide] | 227 | 120 |
| CC(C)(C)NC(=O)c1cccc(NC(=O)Cc2cccc(O)c2)c1 [Example 4, N-tert-Butyl-3-[[2-[3-hydroxyphenyl]acetyl]amino]benzamide] | 96 | 1500 |
| CC(C)(C)NC(=O)c1cccc(NC(=O)Cc2n[nH]c3ccccc23)c1 [Example 4.1, N-tert-Butyl-3-[[2-(1H-indazol-3-yl)acetyl]amino]benzamide] | 79 | 2170 |
| CC(C)(C)NC(=O)c1cccc(NC(=O)Cc2c[nH]c3ccc(F)cc23)c1 [Example 4.2, N-tert-Butyl-3-[[2-(5-fluoro-1H-indol-3-yl)acetyl]amino]benzamide] | 116 | 660 |
| CC(C)(C)NC(=O)c1cccc(NC(=O)Cc2ccccc2O)c1 [Example 4.3, N-tert-Butyl-3-[[2-(2-hydroxyphenyl)acetyl]amino] benzamide] | 151 | 1530 |
